Measured values from patent US4028402A, “Biguanide salts” (Hoffmann-La Roche Inc., priority 1974, dated 1977).
Structures can show the parent of a compound that is named as a salt. Where two headings read alike, the source gives them in different places.

Assays:
in vivo [1] = details: mouse, po, single daily oral administration for 10 days, 24 hours after the last administration
in vivo [2] = details: rat, po, single daily oral administration for 10 days, 24 hours after the last administration
blood glucose = details: single oral dose, 4 h after administration
Protocol: (§1) Four hours after administration of the test substances, the animals were decapitated. After deproteinization of the mixed blood with perchloric acid, glucose concentration was determined photometrically by the hexokinase method. Lactate concentration was determined photometrically with lactate dehydrogenase.

blood lactate = details: single oral dose, 4 h after administration
Protocol: as §1

Mouse = details: single daily oral administration for 10 days, 24 hours after the last administration
Rat = details: single daily oral administration for 10 days, 24 hours after the last administration
[3] = 100 μmol/kg, listed as Bis-dichloroacetate of n-butylbiguanide
[4] = 300 μmol/kg, listed as Bis-dichloroacetate of n-butylbiguanide
[5] = 1000 μmol/kg, listed as Bis-dichloroacetate of n-butylbiguanide
[6] = 100 μmol/kg, listed as Hydrochloride of n-butylbiguanide
[7] = 300 μmol/kg, listed as Hydrochloride of n-butylbiguanide
[8] = 1000 μmol/kg, listed as Hydrochloride of n-butylbiguanide

SMILES	LD50 (in vivo [1])	LD50 (in vivo [2])	Blood glucose, % in controls (blood glucose; [3])	Blood glucose, % in controls (blood glucose; [4])	Blood glucose, % in controls (blood glucose; [5])	Blood lactate, % in controls (blood lactate; [3])	Blood lactate, % in controls (blood lactate; [4])	Blood lactate, % in controls (blood lactate; [5])	Blood glucose, % in controls (blood glucose; [6])	Blood glucose, % in controls (blood glucose; [7])	Blood glucose, % in controls (blood glucose; [8])	Blood lactate, % in controls (blood lactate; [6])	Blood lactate, % in controls (blood lactate; [7])	Blood lactate, % in controls (blood lactate; [8])	LD50 (Mouse)	LD50 (Rat)
CCCCNC(=N)NC(=N)N [n-butylbiguanide bis-dichloroacetate, 1-butylbiguanide bis-(dichloroacetate)]	1130 ± 180 µmol/kg	1200 ± 200 µmol/kg	69 % in controls	62 % in controls	37 % in controls	91 % in controls	100 % in controls	106 % in controls								
CCCCNC(=N)NC(=N)N [n-butylbiguanide hydrochloride, 1-butylbiguanide.HCl]									76 % in controls	68 % in controls	35 % in controls	123 % in controls	114 % in controls	254 % in controls	1.37 ± 0.22 mmol/kg	0.66 ± 0.10 mmol/kg
